One data set deals with Bak. The experiment in a line: Western blot analysis, Bak expression in HT-29 cells. Type of data set: cell-based, human. The note with it: IC50 concentration (115 μM), 72 h treatment only. The protocol:
(§1) The HT-29 cells were cultured in […] tissue culture flasks and incubated at 37°C under 5% CO2 until confluent. […] After incubation at the various times, the cells were detached with accutase in PBS, washed thoroughly with PBS twice, and were then lysed with protein lysis buffer (Sigma, USA) containingprotease inhibitors and shaken by hand for 15 min at room temperature. The lysates were then centrifuged at 13,000 ×g for 20 min at 4°C and the supernatant was collected for protein samples and kept at […] until SDS page analysis. Protein concentration was determined using a BCA (bicinchoninic acid) protein assay kit (Invitrogen, USA) with bovine serum albumin as the standard.
(§2) The proteins were transferred into polyvinylidene difluoride (PVDF) membranes by semidry transfer. Bands were visualized using the Western Max Horseradish Peroxidase Chromogenic Detection Kit protocol (AMRESCO, USA). Briefly, the membranes were blocked in a blocking buffer for 30 min at room temperature. Primary antibodies for Bcl-2, Bcl-xL, PUMA, Mcl-1, Bak, Bad, and Bax were then added. The membranes were incubated with gentle agitation at room temperature overnight. After incubation, the membranes were washed with washing buffer two times and then incubated with Western Max HRP Conjugated Anti-Rabbit Antibody for 45 min at room temperature with gentle agitation. […]

The subject of data set [1] is HT-29 cells. The experiment in a line: Morphological detection of apoptosis (inverted and phase-contrast microscopy). The note with it: IC50 concentrations (115 μM), 24 h, 48 h, 72 h. It counts as cell-based, human. The protocol: HT-29 cells were placed in a Petri dish (30 mm) at a density of 1 × 10^5 cells/well plate and grown for 24 h. […] After the various incubation periods, morphological changes in the apoptotic bodies of the HT-29 cells were examined by inverted and phase-contrast microscopy (Leica, Germany) and photographed.

In data set [2] the test system is breast cancer cell line (MDA-MB231). The note with it: cited from earlier work.
The subject of a further data set is Bcl-2. The experiment in a line: Western blot analysis, Bcl-2 expression in HT-29 cells. Type of data set: cell-based, human. The note with it: IC50 concentration (115 μM), 72 h treatment only. As to the method: as §1, §2
On the technique in general: A western blot detects proteins with antibodies after separation by electrophoresis.

On the set-up of data set [3]: method as in earlier work. To be noted: from ethyl acetate extract of the leaves; cited from earlier work.
In another data set the test system is Mcl-1. The data set can be described thus: Western blot analysis, Mcl-1 expression in HT-29 cells. To be noted: IC50 concentration (115 μM), 24 h, 48 h and 72 h. It counts as cell-based, human. As to the method: as §1, §2
For data set [4], the system named is human normal fibroblast lung cells (MRC-5). The data set can be described thus: MTT cell proliferation assay, MRC-5. Type of data set: cell-based. As to the method: (§3) The HT-29 human colon carcinoma cell line, WRL-68 normal liver cells, and MRC-5 normal lung fibroblast […] cells were purchased from the American Type Culture Collection (ATCC, USA). The cells were placed into tissue culture flasks and grown in a medium containing 10% fetal bovine serum, 100 μg/mL of penicillin/streptomycin, and 100 μg/mL of amphotericin B at 37°C in a humidified atmosphere containing 5% CO2.
(§4) The MTT […]) cell proliferation assay was based on the protocol described by Mosmann. Briefly, cells from a confluent tissue culture flask were spun at 1,000 rpm for five minutes and resuspended in 1.0 mL of growth medium. Cells were then seeded into 96 well plates and incubated in a CO2 incubator at 37°C for 24 hours to allow the cells to adhere and achieve 70%–80% confluence. After 24 hours, the media was removed and the test compound, at varying concentrations of 4, 38, 96, 192, and 384 μM with 200 μL of 10% medium, was added to the respective wells. For negative control, untreated cells were used. After 24 h, 48 h, and 72 h of incubation, respectively, each well had 10 μL of the MTT stock solution added to the test sample and was then incubated in a dark place for three hours. The medium with the MTT solution was removed and 200 μL of absolute DMSO was added to each well in order to solubilise the formazan crystals that had formed. The total amount of formazan crystals was examined by measuring the absorbance at 540 nm using an ELISA plate reader. The assay was carried out in triplicate.
(§5) The percentage of inhibition (%) was calculated using the following formula: (1) percentage of inhibition (%) =OD control−OD sample×100% /OD control, where OD = optical densities.
(§6) The IC50 value is the concentration of test compounds which cause 50% inhibition or cell death, average from three experiments, and was obtained by plotting the percentage of inhibition versus the concentration of test compounds [13].
A general note: Formazan colour is commonly taken as a measure of viable cells.

Data set [5] deals with HT-29 cells. The experiment in a line: Annexin V-FITC/PI staining assay by flow cytometry. It counts as cell-based, human. The protocol: (§7) The quantification of cell death was determined by flow cytometry using the Annexin V-FITC apoptosis detection kit according to the manufacturer's instructions (BD Pharmingen, BD Bioscience, USA). Briefly, 1 × 10^6 of the HT-29 cells were seeded into each Petri dish (30 mm) and after a 24 h incubation, various concentrations of the test compound were added and incubated for 24 h, 48 h, and 72 h, respectively. The cells were then washed with PBS, suspended in annexin V binding buffer and then added to an annexin V-FITC solution and propidium iodide (PI) for 10 minutes at room temperature. The samples were then analyzed using FACScalibur (BD Bioscience, USA) using CellQuest Pro analysis software (Becton Dickinson, USA).
(§8) Cells were treated with various concentrations (96 μM, 192 μM, and 288 μM) of the compound for 24 h, 48 h, and 72 h, respectively. They were then harvested with accutase and phosphate buffer saline and centrifuged, after which they were stained with Annexin V-FITC and propidium iodide and analyzed in FACScalibur with CellQuest Pro software. The number of early apoptotic cells, late apoptotic cells, live cells, and necrotic cells was counted in every 10,000 cells of each treatment. All data was expressed as the mean ± SD (standard deviation). The standard deviation was calculated for the treated and untreated cells. The SPSS program (version 16.0) found a significant difference between the treated and untreated cells ([…]).
Background: In flow cytometry, cells or beads pass a laser one at a time.

Data set [6] in a line: Annexin V-FITC/PI staining assay by flow cytometry. It counts as cell-based, human. To be noted: human, HT-29 cells, 24 h, read-out: viable cells (LL). The protocol:
as §7, §8

A further data set has as its system PUMA. The data set can be described thus: Western blot analysis, PUMA expression in HT-29 cells. It counts as cell-based, human. The note with it: IC50 concentration (115 μM), 24 h, 48 h and 72 h. As to the method: as §1, §2
Data set [7] has as its system human normal liver cells (WRL-68). The data set can be described thus: MTT cell proliferation assay, WRL-68. Type of data set: cell-based. The protocol: as §3, §4, §5, §6
In data set [8] the test system is HT-29 cells. The data set can be described thus: Cell cycle analysis by flow cytometry (PI staining). The note with it: IC50 value of 115 μM. Type of data set: cell-based, human. The protocol: After incubation, the cells were collected by trypsinization, fixed in ethanol, washed in warm PBS, and incubated at −20°C, overnight. Next, the cells were washed with 1 mL of cold PBS and stained with propidium iodide according to the Cycle TEST PLUS DNA Reagent Kit (Becton Dickinson, USA) protocol. The cells were sorted in a FACScalibur flow cytometer (BD, USA) using CellQuest Pro software (Becton Dickinson, USA) and a quantitative analysis of the cell cycle distribution was performed using a trial version of the ModFit LT software, version 4.0.
The HT-29 cells were treated with isolated bioactive 2,4′,6-trihydroxy-4-methoxybenzophenone for 24 h, 48 h, and 72 h. Treated and untreated cells were harvested with accutase and phosphate buffer saline, centrifuged, and stained with propidium iodide. The HT-29 cells were then analyzed by flow cytometry using CellQuest Pro software and their distribution in different phases of the cell cycle is shown in Figure 6(a). The resulting data were tabulated using the trial version of the ModFit L.V 4.0 software to represent a percentage of each cell cycle phase (G0/G1, S, and G2/M), as shown in Figure 6(b).

Data set [9] deals with HT-29 human colon carcinoma cell line. The data set can be described thus: MTT cell proliferation assay, HT-29. It counts as cell-based. The note with it: read-out: IC50 against HT-29 cells. The protocol:
as §3, §4, §5, §6

For data set [10], the system named is human esophageal cancer cells (TE-2). The note with it: cited from earlier work.

Structures are written as SMILES. Read-outs that look alike come from different tables or passages of the source.

As to `COc1cc(O)c(C(=O)c2ccc(O)cc2)c(O)c1` [2,4′,6-trihydroxy-4-methoxybenzophenone], the “expression of Bak” value with Bak is “only up-regulated for 72 h treatment”. For the same molecule, the “morphological changes associated to apoptosis” value with HT-29 cells [1] was “membrane blebbing, cell shrinkage, chromatin condensation, apoptotic nuclei, and DNA fragmentation”. Moreover, the “antiproliferation activity against MDA-MB231” value in data set [2] is “displayed antiproliferation activity”. Moreover, in the data set with Bcl-2, the “expression of Bcl-2” value is on record as “only up-regulated for 72 h treatment”. The antioxidant activity result in [3] was “good antioxidant activity”. In the data set on Mcl-1, the “expression of Mcl-1” value is reported as “significantly upregulated”. For the same molecule, the IC50 – broadly, the point on the concentration scale where inhibition reaches its midpoint – in data set [4] (MRC5, 24 h) was no less than 384 µM; in data set [4] (MRC5, 48 h), 269 ± 0.96 µM; in data set [4] (MRC5, 72 h) it was 356 ± 1.21 µM; in data set [7] (WRL68, 24 h), no less than 384 µM; in data set [7] (WRL68, 48 h), 331 ± 0.69 µM; in data set [7] (WRL68, 72 h), 235 ± 1.03 µM. The IC50 turned out to be 172 ± 2.21 µM in [9] (24 h), 144 ± 2.66 µM in data set [9] (48 h) and 122 ± 1.69 µM in data set [9] (72 h). Moreover, the “early apoptotic cells (LR)” value in the data set with HT-29 cells [5] (96 μM, 24 h) came out at 2.96%; in the data set on HT-29 cells [5] (96 μM, 48 h) it was 10.87%; in the data set on HT-29 cells [5] (96 μM, 72 h), 1.33%; with HT-29 cells [5] (192 μM, 24 h), 8.46%; in the data set on HT-29 cells [5] (192 μM, 48 h), 4.74%; in the data set with HT-29 cells [5] (192 μM, 72 h), 14.34%. Moreover, the “early apoptotic cells (LR)” value in the data set with HT-29 cells [5] (288 μM, 24 h) was 6.71%; with HT-29 cells [5] (288 μM, 48 h) it was 8.51%; with HT-29 cells [5] (288 μM, 72 h), 0.28%. In addition, the “late apoptotic cells (UR)” value with HT-29 cells [5] (96 μM, 24 h) came to 12.28%; in the data set with HT-29 cells [5] (96 μM, 48 h), 31.48%; with HT-29 cells [5] (192 μM, 24 h) it was 25.98%; in the data set with HT-29 cells [5] (288 μM, 24 h), 50.81%; with HT-29 cells [5] (288 μM, 48 h), 54.67%. For the same molecule, the “primary necrotic cells (UL)” value is recorded as 15.49% in the data set on HT-29 cells [5] (96 μM, 24 h); 8.04% in the data set on HT-29 cells [5] (96 μM, 48 h); 30.69% in the data set with HT-29 cells [5] (96 μM, 72 h); 30.40% in the data set with HT-29 cells [5] (192 μM, 24 h); 35.05% in the data set with HT-29 cells [5] (192 μM, 48 h); 13.96% in the data set on HT-29 cells [5] (192 μM, 72 h). Further, the “primary necrotic cells (UL)” value in the data set with HT-29 cells [5] (288 μM, 24 h) worked out at 19.63%; in the data set with HT-29 cells [5] (288 μM, 48 h), 10.02%; in the data set with HT-29 cells [5] (288 μM, 72 h), 36.63%. In addition, the “late apoptotic or secondary necrotic cells (UR)” value with HT-29 cells [5] (96 μM, 72 h) worked out at 15.77%; with HT-29 cells [5] (192 μM, 72 h), 58.97%; in the data set with HT-29 cells [5] (288 μM, 72 h), 8.45%. The “live cells (LL)” value worked out at 52.21% in the data set on HT-29 cells [5] (96 μM, 72 h); 34.22% in the data set with HT-29 cells [5] (192 μM, 48 h); 12.73% in the data set with HT-29 cells [5] (192 μM, 72 h); 26.80% with HT-29 cells [5] (288 μM, 48 h); 54.64% in the data set with HT-29 cells [5] (288 μM, 72 h). The viability at 24 h, 96 µM in [6] (96 μM) stood at 69.3%. In addition, the viability at 24 h, 192 µM in [6] (192 μM) was 35.2%. Besides, the viability at 24 h, 288 µM in [6] (288 μM) was 23.8%. Further, the “expression of PUMA” value in the data set on PUMA is “significantly upregulated”. Moreover, the “cell percentage in the G2/M phase” value is 13.61% with HT-29 cells [8] (24 h), 3.17% in the data set with HT-29 cells [8] (48 h) and 3.20% in the data set on HT-29 cells [8] (72 h). In addition, the figures for the “cell percentage in the S phase” value with HT-29 cells [8] (24 h), with HT-29 cells [8] (48 h) and in the data set on HT-29 cells [8] (72 h) were 15.70%, 16.85% and 8.60%, respectively. The “percentage of diploid cells in the G0/G1 phase” value came to 70.69% in the data set with HT-29 cells [8] (24 h), 79.98% with HT-29 cells [8] (48 h) and 88.21% in the data set with HT-29 cells [8] (72 h). Further, the “effect on cell cycle” value in the data set on HT-29 cells [8] (24 h, 48 h, 72 h, time-dependent) is on record as “cell cycle arrest in the G0/G1 phase”.
Regarding `COc1cc(O)c(C(=O)c2ccc(O)cc2)c(O[C@@H]2O[C@H](CO)[C@@H](O)[C@H](O)[C@H]2O)c1` [4′,6-dihydroxy-4-methoxybenzophenone 2-o-β-D-glucopyranoside], the “antiproliferation activity against MDA-MB231” value in [2] was “displayed antiproliferation activity”.
On to `O=C(O)c1cc(O)c(O)c(O)c1` [Gallic acid], for which, in [10], the “anticancer properties against TE-2 cells” value is “possess anticancer properties”.
